This note sets out measurements from ChEMBL document CHEMBL1138960 (Bioorg Med Chem Lett, 2006).

≈ marks a conversion by molar mass, not a printed value. Calls of active or inactive are those of the source. No cut-off for these calls is given here.

A short description of series [1]: Half life in rat. The format is ADME, organism-based. The conditions noted are these: in vivo.
Series [2] deals with HeLa. Put plainly: Antiproliferative activity against human HeLa cells. The format is functional, cell-based.
Series [3] can be described thus: Solubility at pH 7.4. The format is physicochemical. The conditions noted are these: buffer.
Series [4] is described as follows: Tmax in rat. The note with it: in vivo. The format is ADME, organism-based.
The nature of series [5]: AUC in rat at 3 mg/kg, iv. In kind it is ADME, organism-based. The conditions noted are these: plasma. Also on record: dose 3 mg/kg, route intravenous.
The test system of series [6] is A-375. Put plainly: Antiproliferative activity against human A375 cells. In kind it is functional, cell-based.
Series [7] has as its system Rattus norvegicus. Briefly: Conversion of prodrug to parent in rat at 3 mg/kg, iv [100*AUC (JNJ-7706621) / AUC (prodrug)]. More on the design: dose 3 mg/kg, route intravenous. The format is ADME, organism-based. The note with it: in vivo.
Series [8] concerns HCT-116. Briefly: Antiproliferative activity against human HCT116 cells. The format is functional, cell-based.
Series [9] has as its target Cyclin-dependent kinase 2 (Homo sapiens, UniProt P24941). Put plainly: Inhibition of CDK2.
The nature of series [10]: Solubility at pH 2.0. In kind it is physicochemical. The conditions noted are these: buffer.
Series [11] concerns the target Cyclin-dependent kinase 1 (Homo sapiens, UniProt P06493). Briefly: Inhibition of CDK1.
For series [12], the system named is A-375. Briefly: Antitumor activity in human melanoma A375 cell line using tumor xenograft model after 28 days at 100 mg/kg, ip. In kind it is functional, organism-based. Also on record: dose 100 mg/kg. In general terms: In xenograft studies the graft and the host belong to different species.
The subject of series [13] is A-375. Briefly: Antitumor activity in human melanoma A375 cell line using tumor xenograft model at 100 mg/kg, ip. In kind it is functional. The note with it: A-375, ip, route intraperitoneal, read-out: TGI.
Series [14] deals with Rattus norvegicus. Put plainly: AUC in rat after administration as its prodrug N-(4-(5-amino-1-(2,6-difluorobenzoyl)-1H-1,2,4-triazol-3-ylamino)phenylsulfonyl)-3-(4-methylpiperazin-1-yl)propanamide at 3 mg/kg, iv. The format is ADME, organism-based, Plasma. Also on record: dose 3 mg/kg, route intravenous. The note with it: in vivo.
Series [15] can be described thus: Oral bioavailability in rat. In kind it is ADME, organism-based. The conditions noted are these: in vivo.
Series [16] in a line: Oral bioavailability in nude mice. The format is ADME, organism-based. The note with it: mouse, in vivo.
In series [17] the test system is Rattus norvegicus. Put plainly: AUC in rat after administration as its prodrug 4-(4-(5-amino-1-(2,6-difluorobenzoyl)-1H-1,2,4-triazol-3-ylamino)phenylsulfonamido)-4-oxobutanoic acid at 3 mg/kg, iv. The format is ADME, organism-based, Plasma. More on the design: dose 3 mg/kg, route intravenous. The conditions noted are these: in vivo.
Series [18] has as its system Rattus norvegicus. Put plainly: AUC in rat after administration as its prodrug 2-amino-N-(4-(5-amino-1-(2,6-difluorobenzoyl)-1H-1,2,4-triazol-3-ylamino)phenylsulfonyl)acetamide at 3 mg/kg, iv. In kind it is ADME, organism-based, Plasma. Also on record: dose 3 mg/kg, route intravenous. The note with it: in vivo.
Series [19] has as its system Rattus norvegicus. Put plainly: AUC in rat after administration as its prodrug N-(4-(5-amino-1-(2,6-difluorobenzoyl)-1H-1,2,4-triazol-3-ylamino)phenylsulfonyl)-2-(2-methoxyethoxy)acetamide at 3 mg/kg, iv. In kind it is ADME, organism-based, Plasma. More on the design: dose 3 mg/kg, route intravenous. The note with it: in vivo.
In series [20] the test system is Rattus norvegicus. Briefly: AUC in rat after administration as its prodrug N-(4-(5-amino-1-(2,6-difluorobenzoyl)-1H-1,2,4-triazol-3-ylamino)phenylsulfonyl)-3-morpholinopropanamide at 3 mg/kg, iv. In kind it is ADME, organism-based, Plasma. More on the design: dose 3 mg/kg, route intravenous. The conditions noted are these: in vivo.
The test system of series [21] is Rattus norvegicus. Briefly: AUC in rat after administration as its prodrug (R)-2-amino-N-(4-(5-amino-1-(2,6-difluorobenzoyl)-1H-1,2,4-triazol-3-ylamino)phenylsulfonyl)-3-hydroxypropanamide at 3 mg/kg, iv. The format is ADME, organism-based, Plasma. More on the design: dose 3 mg/kg, route intravenous. The note with it: in vivo.
Series [22] deals with Rattus norvegicus. Put plainly: AUC in rat after administration as its prodrug ethyl 4-(4-(5-amino-1-(2,6-difluorobenzoyl)-1H-1,2,4-triazol-3-ylamino)phenylsulfonamido)-4-oxobutanoate at 3 mg/kg, iv. The note with it: in vivo. Also on record: dose 3 mg/kg, route intravenous. The format is ADME, organism-based, Plasma.

Cyclin-dependent kinase 1, sequence (P06493 whole entry): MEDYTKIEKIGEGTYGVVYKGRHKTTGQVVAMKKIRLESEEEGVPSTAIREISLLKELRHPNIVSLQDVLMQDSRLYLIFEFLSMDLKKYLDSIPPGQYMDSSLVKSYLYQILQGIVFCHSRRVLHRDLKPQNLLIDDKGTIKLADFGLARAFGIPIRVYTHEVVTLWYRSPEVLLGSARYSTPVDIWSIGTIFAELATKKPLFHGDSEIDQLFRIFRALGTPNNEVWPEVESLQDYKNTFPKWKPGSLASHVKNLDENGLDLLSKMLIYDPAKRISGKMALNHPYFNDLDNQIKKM

The term half-life denotes the time in which the quantity being followed falls by half. Lower therefore signals rapid decline. Usually IC50 stands for the concentration needed to halve the response being measured. A high value points to weaker potency in that assay. The solubility is how much of the substance goes into solution per volume. A higher solubility goes with a readily soluble substance. In general, Tmax refers to the time at which the peak concentration occurs. By AUC is commonly meant the area under the concentration-time curve, a measure of exposure. With `CCOC(=O)CCC(=O)NS(=O)(=O)c1ccc(Nc2nc(N)n(C(=O)c3c(F)cccc3F)n2)cc1`, the half-life in series [1] is 9.6 min. In addition, the IC50 is 60.2 µM in series [2], greater than 10 µM in series [6], 40.1 µM in series [8] and 0.062 µM in series [9]. Besides, the solubility came out at 210 µg/mL (≈ 402 µM) in [3] and 0.2 µg/mL (≈ 0.383 µM) in series [10]. Also, the Tmax in series [4] was 4.8 min. This compound also gave an area under the curve (AUC) in series [5] of 72.2 µM·h. The Activity in series [7] was determined as 40%.

In [1], `CN1CCN(CCC(=O)NS(=O)(=O)c2ccc(Nc3nc(N)n(C(=O)c4c(F)cccc4F)n3)cc2)CC1` gave a half-life of 9.6 min. Further, the IC50 in [2] was greater than 100 µM; in [6], greater than 100 µM; in [8], greater than 10 µM; in series [9] it was 0.266 µM. In addition, the values for the solubility in series [3] and in series [10] were 820 µg/mL (≈ 1490 µM) and greater than 1000 µg/mL, respectively. Also, in series [4], the Tmax is 4.8 min. Moreover, the AUC in [5] was determined as 23.2 µM·h. Further, in series [7], the Activity amounted to 4%.

`Nc1nc(Nc2ccc(S(=O)(=O)NC(=O)[C@H](N)CO)cc2)nn1C(=O)c1c(F)cccc1F` showed a half-life in [1] of 9.6 min. Moreover, the IC50 was 4.02 µM in [2]; 1.41 µM in series [11]; greater than 10 µM in series [6]; 71.2 µM in [8]; 0.14 µM in series [9]. Besides, the solubility in series [3] is greater than 1000 µg/mL; in series [10], 440 µg/mL (≈ 914 µM). The time of peak concentration (Tmax) in series [4] was found to be 4.8 min. Also, in series [5], the AUC was determined as 8.15 µM·h. Besides, the Activity in [7] was 8%.

In series [1], `COCCOCC(=O)NS(=O)(=O)c1ccc(Nc2nc(N)n(C(=O)c3c(F)cccc3F)n2)cc1` showed a half-life of 9.6 min. Further, the IC50 in series [2] is greater than 10 µM; in series [6] it was greater than 100 µM; in series [8], greater than 10 µM; in [9] it was 0.247 µM. The values for the solubility in series [3] and in [10] were greater than 1000 µg/mL and 5.4 µg/mL (≈ 10.6 µM), respectively. In series [4], the time to peak (Tmax) was determined as 4.8 min. In [5], this compound gave an AUC of 42.9 µM·h. Besides, the Activity in series [7] amounted to 18%.

With `Nc1nc(Nc2ccc(S(=O)(=O)NC(=O)CCC(=O)O)cc2)nn1C(=O)c1c(F)cccc1F`, the half-life in [1] was 9.6 min. Besides, the IC50 in [2] is 31.9 µM; in series [6], 20.2 µM; in [8], greater than 100 µM; in [9], 0.071 µM. Moreover, the solubility in series [3] is greater than 1000 µg/mL; in series [10], 0.7 µg/mL (≈ 1.42 µM). Moreover, the Tmax in series [4] is 4.8 min. In addition, the result in [12] was inactive. The compound also returned an exposure (AUC) in series [5] of 47 µM·h. Moreover, the Activity in series [7] is given as 38%.

As to `NCC(=O)NS(=O)(=O)c1ccc(Nc2nc(N)n(C(=O)c3c(F)cccc3F)n2)cc1`, the half-life in series [1] was 9.6 min. Further, the IC50 in [2] was 14.9 µM; in series [6], 9.45 µM; in [8], 36.9 µM. The solubility in series [3] amounted to 200 µg/mL (≈ 443 µM); in [10] it was 130 µg/mL (≈ 288 µM). The time to peak (Tmax) in [4] stood at 4.8 min. Further, in series [5], the area under the curve (AUC) stood at 11.8 µM·h. Further, in series [7], the Activity is on record as 31%.

The term bioavailability denotes the share of a dose that reaches the circulation, judged against a reference dose that is usually intravenous. Turning to `Nc1nc(Nc2ccc(S(N)(=O)=O)cc2)nn1C(=O)c1c(F)cccc1F` [JNJ-7706621], the half-life in series [1] was 9.6 min. For the same compound, in [13], the inhibition in vivo at 100 mg/kg came to 95%. In addition, the AUC in series [14] turned out to be 0.93 µM·h; in series [17], 18 µM·h; in series [18], 3.67 µM·h; in [19], 7.62 µM·h; in [20], 1.4 µM·h; in [21], 0.63 µM·h. In addition, in [22], the AUC was 29.1 µM·h. The bioavailability was 8% in series [15] and 2% in [16]. For the same compound, the half-maximal inhibitory concentration (IC50) was found to be 0.284 µM in series [2], 0.447 µM in [6] and 0.254 µM in [8]. Also, the Tmax in series [4] stood at 4.8 min. This compound showed a solubility in series [10] of 6 µg/mL (≈ 15.2 µM).

As for `Nc1nc(Nc2ccc(S(=O)(=O)NC(=O)CCN3CCOCC3)cc2)nn1C(=O)c1c(F)cccc1F`, in series [1], the half-life is 9.6 min. In addition, the half-inhibitory concentration (IC50) is 20.9 µM in [2], greater than 100 µM in series [6], 50.8 µM in series [8] and 0.118 µM in series [9]. Further, the solubility in series [3] came out at 4.7 µg/mL (≈ 8.78 µM); in series [10] it was 14 µg/mL (≈ 26.1 µM). Besides, the Tmax in [4] was 4.8 min. Moreover, the AUC in [5] turned out to be 20.5 µM·h. Moreover, the Activity in series [7] is 7%.
